Measured values as given in PubChem BioAssay AID330 (DTP/NCI, 2004).
Several values for one entry are separate records, joined by “and”; a condition that tells them apart may be missing. Equal entries are not always repeated. Toxic doses and inconclusive results are not listed. How the source made its calls: active means survival T/C of 150% or more; inactive means T/C below 125% in these data. Peptide text beside a SMILES is read from it. * marks the point of attachment. Butyryl = CCCC(=O)*; Bn = c1ccc(C*)cc1

Tested on: P388 leukemia ip, CD2F1 mice, survival T/C
Assay: NCI In Vivo Anticancer Drug Screen. Data for tumor model P388 Leukemia (intraperitoneal) in CD2F1 (CDF1) mice
Conditions: endpoint: median survival time, higher = longer survival
Outline: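 Mice carrying the transplanted tumor received test compound or vehicle. Survival was recorded in each group, and the value is the treated-group measurement divided by that of the vehicle-treated control group.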

[1] = dose: 50.0 mg/kg/injection, schedule: Q01DX009 (ip), vehicle: saline with Tween-80
[2] = dose: 100.0 mg/kg/injection, schedule: Q01DX009 (ip), vehicle: saline with Tween-80
[3] = dose: 200.0 mg/kg/injection, schedule: Q01DX009 (ip), vehicle: saline with Tween-80
[4] = dose: 60.0 mg/kg/injection, schedule: Q01DX005 (ip), vehicle: saline with Tween-80
[5] = dose: 120.0 mg/kg/injection, schedule: Q01DX005 (ip), vehicle: saline with Tween-80
[6] = dose: 240.0 mg/kg/injection, schedule: Q01DX005 (ip), vehicle: saline with Tween-80
[7] = dose: 100.0 mg/kg/injection, schedule: Q01DX005 (ip), vehicle: saline with Tween-80
[8] = dose: 200.0 mg/kg/injection, schedule: Q01DX005 (ip), vehicle: saline with Tween-80
[9] = dose: 50.0 mg/kg/injection, schedule: Q01DX005 (ip), vehicle: Klucel (hydroxypropylcellulose) (HPC)
[10] = dose: 100.0 mg/kg/injection, schedule: Q01DX005 (ip), vehicle: Klucel (hydroxypropylcellulose) (HPC)
[11] = dose: 200.0 mg/kg/injection, schedule: Q01DX005 (ip), vehicle: Klucel (hydroxypropylcellulose) (HPC)
[12] = dose: 50.0 mg/kg/injection, schedule: Q01DX005 (ip), vehicle: saline with Tween-80

Measured: T/C

Cc1ccc(N=C(N)NN=C(c2ccc(Cl)cc2)c2ccc(Cl)cc2)cc1
inactive: dose: 25.0 mg/kg/injection, schedule: Q04DX002 (ip), vehicle: saline with Tween-80 98 % of control and 103 % of control and 107 % of control | dose: 50.0 mg/kg/injection, schedule: Q04DX002 (ip), vehicle: saline with Tween-80 100 % of control and 106 % of control and 108 % of control | dose: 100.0 mg/kg/injection, schedule: Q04DX002 (ip), vehicle: saline with Tween-80 107 % of control (2×) and 109 % of control | dose: 200.0 mg/kg/injection, schedule: Q04DX002 (ip), vehicle: saline with Tween-80 105 % of control and 118 % of control and 120 % of control

C=C1C(=O)OC2C3[C@@]4(C)O[C@H]4[C@H]4O[C@@]34[C@](C)(O)CC(OC(C)=O)[C@@H]12 (some centres undefined)
inactive: dose: 1687.5 micrograms/kg/injection, schedule: Q01DX005 (ip), vehicle: Klucel (hydroxypropylcellulose) (HPC) 104 % of control | dose: 3375.0 micrograms/kg/injection, schedule: Q01DX005 (ip), vehicle: Klucel (hydroxypropylcellulose) (HPC) 108 % of control | dose: 6750.0 micrograms/kg/injection, schedule: Q01DX005 (ip), vehicle: Klucel (hydroxypropylcellulose) (HPC) 100 % of control | dose: 13500.0 micrograms/kg/injection, schedule: Q01DX005 (ip), vehicle: Klucel (hydroxypropylcellulose) (HPC) 106 % of control

Cc1ccc2c3c1CCCN3CCC2
inactive: dose: 50.0 mg/kg/injection, schedule: Q04DX003 (ip), vehicle: saline 112 % of control | dose: 100.0 mg/kg/injection, schedule: Q04DX003 (ip), vehicle: saline 112 % of control

C/C(=C/C=C(c1ccccc1)c1ccccc1)C1CCC2C3CCC4CC5CCC4(C)C3(O5)C(=O)CC12C (centres undefined)
inactive: dose: 6.25 mg/kg/injection, schedule: Q04DX002 (sc), vehicle: steriod suspending solution 102 % of control | dose: 12.5 mg/kg/injection, schedule: Q04DX002 (sc), vehicle: steriod suspending solution 105 % of control | dose: 25.0 mg/kg/injection, schedule: Q04DX002 (sc), vehicle: steriod suspending solution 101 % of control | dose: 50.0 mg/kg/injection, schedule: Q04DX002 (sc), vehicle: steriod suspending solution 101 % of control

Nc1nc(N)nc(-c2ccccc2Cl)n1
inactive: dose: 50.0 mg/kg/injection, schedule: Q01DX009 (ip), vehicle: saline 117 % of control | dose: 100.0 mg/kg/injection, schedule: Q01DX009 (ip), vehicle: saline 93 % of control | dose: 200.0 mg/kg/injection, schedule: Q01DX009 (ip), vehicle: saline 117 % of control

CC(CC(=O)c1ccccc1)=NCCCN=C(C)CC(=O)c1ccccc1
inactive: [1] 112 % of control | [2] 96 % of control | [3] 96 % of control

Cc1cc(C(=O)c2ccccc2)on1
inactive: dose: 100.0 mg/kg/injection, schedule: Q04DX003 (ip), vehicle: Klucel (hydroxypropylcellulose) (HPC) 104 % of control | dose: 200.0 mg/kg/injection, schedule: Q04DX003 (ip), vehicle: Klucel (hydroxypropylcellulose) (HPC) 100 % of control | dose: 400.0 mg/kg/injection, schedule: Q04DX003 (ip), vehicle: Klucel (hydroxypropylcellulose) (HPC) 100 % of control

O=S(=O)(Nc1cccc(Cl)c1)c1ccc(F)cc1
inactive: [4] 96 % of control | [5] 99 % of control | [6] 101 % of control

CN(C)N1C(=O)C(C(=O)Nc2cccc3ccccc23)SC1=S (centres undefined)
inactive: dose: 0.75 mg/kg/injection, schedule: Q01DX005 (ip), vehicle: saline with Tween-80 96 % of control | dose: 1.5 mg/kg/injection, schedule: Q01DX005 (ip), vehicle: saline with Tween-80 88 % of control | dose: 3.0 mg/kg/injection, schedule: Q01DX005 (ip), vehicle: saline with Tween-80 91 % of control | [7] 99 % of control | [8] 103 % of control

[CH3][Sn]([CH3])([n]1nnc2ccccc21)[n]1nnc2ccccc21
inactive: dose: 25.0 mg/kg/injection, schedule: Q01DX005 (ip), vehicle: Klucel (hydroxypropylcellulose) (HPC) 114 % of control | [9] 115 % of control and 121 % of control | [10] 112 % of control and 115 % of control | [11] 112 % of control

O=C(O)c1cn(O)ccc1=O
inactive: [12] 94 % of control | [7] 100 % of control | [8] 97 % of control

CCCC(=O)NC(CSCc1ccccc1)C(=O)NC(CCC(=O)OC)C(=O)OC (centres undefined) (Butyryl-Cys(Bn)-Glu(OMe)-OMe; configuration not given here)
inactive: [1] 104 % of control | [2] 104 % of control | [3] 96 % of control

COC1=C(OC)S[C@H]2C3CC([C@H]2S1)[C@@H]1SC(OC)=C(OC)S[C@H]31
inactive: [9] 97 % of control | [10] 97 % of control | [11] 98 % of control

CCn1c2ccccc2n2c(=O)c(Cl)c(C)c(C#N)c12
inactive: [4] 100 % of control | [5] 98 % of control | [6] 97 % of control

O=[N+]([O-])c1ccc(N(CCO)CCO)c2c1no[n+]2[O-]
inactive: dose: 3.12 mg/kg/injection, schedule: Q01DX005 (ip), vehicle: saline with Tween-80 117 % of control | dose: 6.25 mg/kg/injection, schedule: Q01DX005 (ip), vehicle: saline with Tween-80 122 % of control | dose: 8.0 mg/kg/injection, schedule: Q04DX003 (ip), vehicle: saline 111 % of control | dose: 16.0 mg/kg/injection, schedule: Q04DX003 (ip), vehicle: saline 121 % of control

CC(C)SSC(=O)N1CCCC1C(=O)O (centres undefined)
inactive: dose: 15.0 mg/kg/injection, schedule: Q01DX005 (ip), vehicle: saline 106 % of control | dose: 30.0 mg/kg/injection, schedule: Q01DX005 (ip), vehicle: saline 98 % of control | dose: 60.0 mg/kg/injection, schedule: Q01DX005 (ip), vehicle: saline 98 % of control

CN=C(c1ccc(NC(=O)c2ccc(C(=O)Nc3ccc(C(=NC)N4CCOCC4)cc3)c(Cl)c2)cc1)N1CCOCC1
inactive: dose: 0.19 mg/kg/injection, schedule: Q01DX005 (ip), vehicle: saline 97 % of control | dose: 0.39 mg/kg/injection, schedule: Q01DX005 (ip), vehicle: saline 100 % of control | dose: 0.78 mg/kg/injection, schedule: Q01DX005 (ip), vehicle: saline 100 % of control | dose: 1.56 mg/kg/injection, schedule: Q01DX005 (ip), vehicle: saline 100 % of control | dose: 6.25 mg/kg/injection, schedule: Q01DX005 (ip), vehicle: saline 107 % of control

c1ccc(Nc2ncnc3ccccc23)cc1
inactive: dose: 50.0 mg/kg/injection, schedule: Q01DX009 (ip), vehicle: Klucel (hydroxypropylcellulose) (HPC) 102 % of control | dose: 100.0 mg/kg/injection, schedule: Q01DX009 (ip), vehicle: Klucel (hydroxypropylcellulose) (HPC) 102 % of control | dose: 200.0 mg/kg/injection, schedule: Q01DX009 (ip), vehicle: Klucel (hydroxypropylcellulose) (HPC) 112 % of control

O=C(O)C(Cc1cccc(F)c1)NC(=O)C(F)(F)F (centres undefined)
inactive: dose: 6.25 mg/kg/injection, schedule: Q01DX009 (ip), vehicle: saline 98 % of control

O=C(/C=C/c1ccc(Cl)cc1Cl)c1ccc(Cl)cc1
inactive: dose: 100.0 mg/kg/injection, schedule: Q04DX003 (ip), vehicle: saline with Tween-80 100 % of control | dose: 200.0 mg/kg/injection, schedule: Q04DX003 (ip), vehicle: saline with Tween-80 95 % of control | dose: 400.0 mg/kg/injection, schedule: Q04DX003 (ip), vehicle: saline with Tween-80 90 % of control

CC1=NNC(=O)CC1C(O)c1ccc(F)cc1 (centres undefined)
inactive: [4] 100 % of control | [5] 104 % of control | [6] 100 % of control

C=C(CCCCC)C(=O)/C=C/c1ccc(Cl)c(Cl)c1
inactive: dose: 6.25 mg/kg/injection, schedule: Q01DX009 (ip), vehicle: other 97 % of control | dose: 12.5 mg/kg/injection, schedule: Q01DX009 (ip), vehicle: other 107 % of control | dose: 25.0 mg/kg/injection, schedule: Q01DX009 (ip), vehicle: other 108 % of control | dose: 50.0 mg/kg/injection, schedule: Q01DX009 (ip), vehicle: other 109 % of control

Cn1c2ccccc2c(=O)c2cc(NC(=O)CCCC(=O)Nc3ccc4c(c3)c(=O)c3ccccc3n4C)ccc21
inactive: [12] 98 % of control | [7] 99 % of control | [8] 101 % of control

Nc1nc2nn(Cc3ccc(Cl)c(Cl)c3)c(-c3ccc(Cl)c(Cl)c3)c2c(=O)[nH]1
inactive: dose: 100.0 mg/kg/injection, schedule: Q01DX001 (ip), vehicle: saline with Tween-80 91 % of control | dose: 200.0 mg/kg/injection, schedule: Q01DX001 (ip), vehicle: saline with Tween-80 97 % of control | dose: 400.0 mg/kg/injection, schedule: Q01DX001 (ip), vehicle: saline with Tween-80 88 % of control
